Our source for the residual activity, inhibition and Ki values is ChEMBL document CHEMBL4507310, “Data for DCP probe A-1211212” (2021).

Experiment [1] deals with Mitogen-activated protein kinase 12 (Homo sapiens) (UniProt P53778). As to conditions: Compound concentration 1000.0 nM.
In experiment [2] the target is Ephrin type-B receptor 3 (Homo sapiens) (UniProt P54753). Conditions: Compound concentration 1000.0 nM.
Experiment [3] concerns the target Calcium/calmodulin-dependent protein kinase type 1G (Homo sapiens) (UniProt Q96NX5). Conditions: Compound concentration 1000.0 nM.
Experiment [4] concerns the target Cyclin-dependent kinase 18 (Homo sapiens) (UniProt Q07002). Conditions: Compound concentration 1000.0 nM.
The target of experiment [5] is Testis-specific serine/threonine-protein kinase 1 (Homo sapiens) (UniProt Q9BXA7). Conditions: Compound concentration 1000.0 nM.
Chain of Testis-specific serine/threonine-protein kinase 1 (Homo sapiens) (Q9BXA7 whole entry): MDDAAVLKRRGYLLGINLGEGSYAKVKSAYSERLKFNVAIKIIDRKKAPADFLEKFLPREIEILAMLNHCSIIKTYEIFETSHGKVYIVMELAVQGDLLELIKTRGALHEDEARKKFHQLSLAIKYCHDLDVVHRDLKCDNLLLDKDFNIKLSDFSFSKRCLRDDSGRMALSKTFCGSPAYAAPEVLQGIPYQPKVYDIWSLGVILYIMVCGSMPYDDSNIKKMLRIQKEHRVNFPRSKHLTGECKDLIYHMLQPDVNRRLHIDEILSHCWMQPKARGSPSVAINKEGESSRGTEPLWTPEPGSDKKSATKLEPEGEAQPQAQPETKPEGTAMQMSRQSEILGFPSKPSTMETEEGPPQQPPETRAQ
Experiment [6] addresses Serine/threonine-protein kinase 16 (Homo sapiens) (UniProt O75716). Conditions: Compound concentration 1000.0 nM.
In experiment [7] the target is T1, Alpha-2A adrenergic receptor (Homo sapiens) (UniProt P08913).
T1 sequence (whole entry): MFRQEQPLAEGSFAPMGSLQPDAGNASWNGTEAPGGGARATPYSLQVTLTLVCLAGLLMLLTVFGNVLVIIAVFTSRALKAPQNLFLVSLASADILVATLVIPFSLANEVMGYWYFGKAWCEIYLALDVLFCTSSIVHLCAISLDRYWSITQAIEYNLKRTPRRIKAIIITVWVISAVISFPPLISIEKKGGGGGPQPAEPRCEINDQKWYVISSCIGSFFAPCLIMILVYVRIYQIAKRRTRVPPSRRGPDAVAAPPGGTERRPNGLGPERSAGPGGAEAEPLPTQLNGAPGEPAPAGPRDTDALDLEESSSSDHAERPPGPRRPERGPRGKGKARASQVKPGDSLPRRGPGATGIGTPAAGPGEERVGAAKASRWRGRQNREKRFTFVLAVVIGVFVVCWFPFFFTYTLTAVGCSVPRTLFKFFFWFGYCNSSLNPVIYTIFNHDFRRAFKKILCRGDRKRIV
As to conditions: Compound concentration 10.0 uM.

For experiment [8], the system named is Receptor-type tyrosine-protein kinase FLT3 (Homo sapiens), P36888 [D835H]. As to conditions: Compound concentration 1000.0 nM.
In experiment [9] the target is Alpha-1D adrenergic receptor (Homo sapiens, UniProt P25100). Put plainly: GPCRScan assay: inhibition of Alpha1D. Also on record: radioligand conc. used [nm] 0.3 – 1.0, parental cells stable.
Experiment [10] deals with Activin receptor type-1-like (Homo sapiens) (UniProt P37023). Conditions: Compound concentration 1000.0 nM.
Experiment [11] has as its target Cyclin-dependent kinase 2 (Homo sapiens) (UniProt P24941). As to conditions: Compound concentration 1000.0 nM.
Experiment [12] has as its target Hormonally up-regulated neu tumor-associated kinase (Homo sapiens) (UniProt P57058). As to conditions: Compound concentration 1000.0 nM.
Experiment [13] deals with Phosphatidylinositol 5-phosphate 4-kinase type-2 beta (Homo sapiens) (UniProt P78356). As to conditions: Compound concentration 1000.0 nM.
For experiment [14], the target named is Microtubule-associated serine/threonine-protein kinase 1 (Homo sapiens) (UniProt Q9Y2H9). As to conditions: Compound concentration 1000.0 nM.
Chain of Microtubule-associated serine/threonine-protein kinase 1 (Homo sapiens) (Q9Y2H9 whole entry, looked up): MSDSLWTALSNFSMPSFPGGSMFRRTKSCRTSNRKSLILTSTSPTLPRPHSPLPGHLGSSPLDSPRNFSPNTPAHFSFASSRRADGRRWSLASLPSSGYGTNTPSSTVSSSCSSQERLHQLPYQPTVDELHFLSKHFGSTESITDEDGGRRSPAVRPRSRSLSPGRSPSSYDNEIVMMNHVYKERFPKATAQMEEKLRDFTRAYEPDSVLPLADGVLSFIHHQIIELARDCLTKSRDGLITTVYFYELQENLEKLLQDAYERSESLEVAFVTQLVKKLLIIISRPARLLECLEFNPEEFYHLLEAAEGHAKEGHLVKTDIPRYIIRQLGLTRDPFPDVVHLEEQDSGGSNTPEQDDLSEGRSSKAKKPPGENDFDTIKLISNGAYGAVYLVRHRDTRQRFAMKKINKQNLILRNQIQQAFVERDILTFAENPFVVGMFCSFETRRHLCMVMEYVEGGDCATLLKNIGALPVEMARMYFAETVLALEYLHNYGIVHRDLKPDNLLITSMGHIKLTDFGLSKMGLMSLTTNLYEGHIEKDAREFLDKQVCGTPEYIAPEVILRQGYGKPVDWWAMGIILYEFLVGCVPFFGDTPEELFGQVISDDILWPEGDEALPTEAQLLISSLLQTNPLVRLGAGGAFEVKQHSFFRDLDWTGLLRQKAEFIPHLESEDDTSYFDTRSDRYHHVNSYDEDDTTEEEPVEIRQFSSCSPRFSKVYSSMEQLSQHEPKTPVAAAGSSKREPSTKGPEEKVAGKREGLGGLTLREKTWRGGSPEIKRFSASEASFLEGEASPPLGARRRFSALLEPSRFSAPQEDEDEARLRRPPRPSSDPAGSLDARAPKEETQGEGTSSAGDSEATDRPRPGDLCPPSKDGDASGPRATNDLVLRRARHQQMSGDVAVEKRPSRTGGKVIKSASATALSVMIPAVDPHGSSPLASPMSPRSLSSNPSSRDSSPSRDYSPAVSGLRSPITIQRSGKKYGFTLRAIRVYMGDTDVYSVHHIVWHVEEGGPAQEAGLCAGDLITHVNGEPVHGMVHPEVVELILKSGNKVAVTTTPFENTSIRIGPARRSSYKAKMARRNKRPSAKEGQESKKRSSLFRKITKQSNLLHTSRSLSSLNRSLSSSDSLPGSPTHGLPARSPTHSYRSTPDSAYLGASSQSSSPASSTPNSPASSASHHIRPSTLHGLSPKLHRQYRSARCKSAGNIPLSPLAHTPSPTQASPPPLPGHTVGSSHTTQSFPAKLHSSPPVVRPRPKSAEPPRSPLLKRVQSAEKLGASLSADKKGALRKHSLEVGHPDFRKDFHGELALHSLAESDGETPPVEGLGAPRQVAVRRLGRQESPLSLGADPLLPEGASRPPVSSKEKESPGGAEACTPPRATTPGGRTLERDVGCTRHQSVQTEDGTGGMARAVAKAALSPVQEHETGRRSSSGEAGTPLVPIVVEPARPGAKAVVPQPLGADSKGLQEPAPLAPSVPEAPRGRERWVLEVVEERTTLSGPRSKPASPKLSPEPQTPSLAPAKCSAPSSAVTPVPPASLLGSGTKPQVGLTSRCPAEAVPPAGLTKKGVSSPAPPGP
In experiment [15] the target is T2, Muscarinic acetylcholine receptor M5 (Homo sapiens) (UniProt P08912).
T2 sequence (whole entry): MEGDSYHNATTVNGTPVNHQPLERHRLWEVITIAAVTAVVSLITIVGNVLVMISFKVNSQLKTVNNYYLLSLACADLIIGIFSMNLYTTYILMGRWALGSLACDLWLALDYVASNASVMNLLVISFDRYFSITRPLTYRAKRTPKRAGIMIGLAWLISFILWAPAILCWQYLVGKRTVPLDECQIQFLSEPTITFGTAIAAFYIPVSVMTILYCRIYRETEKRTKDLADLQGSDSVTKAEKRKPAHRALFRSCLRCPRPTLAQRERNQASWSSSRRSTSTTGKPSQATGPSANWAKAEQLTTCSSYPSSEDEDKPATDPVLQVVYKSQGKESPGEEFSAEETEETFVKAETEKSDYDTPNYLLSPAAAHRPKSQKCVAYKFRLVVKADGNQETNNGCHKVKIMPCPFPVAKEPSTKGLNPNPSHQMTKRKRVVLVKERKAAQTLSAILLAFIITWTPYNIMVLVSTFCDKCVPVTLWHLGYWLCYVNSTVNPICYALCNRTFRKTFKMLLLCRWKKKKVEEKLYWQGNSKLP
As to conditions: Compound concentration 10.0 uM.

The target in experiment [16] is Phosphatidylinositol 4-phosphate 5-kinase type-1 alpha (Homo sapiens) (UniProt Q99755). As to conditions: Compound concentration 1000.0 nM.
Chain of Phosphatidylinositol 4-phosphate 5-kinase type-1 alpha (Homo sapiens) (Q99755 whole entry): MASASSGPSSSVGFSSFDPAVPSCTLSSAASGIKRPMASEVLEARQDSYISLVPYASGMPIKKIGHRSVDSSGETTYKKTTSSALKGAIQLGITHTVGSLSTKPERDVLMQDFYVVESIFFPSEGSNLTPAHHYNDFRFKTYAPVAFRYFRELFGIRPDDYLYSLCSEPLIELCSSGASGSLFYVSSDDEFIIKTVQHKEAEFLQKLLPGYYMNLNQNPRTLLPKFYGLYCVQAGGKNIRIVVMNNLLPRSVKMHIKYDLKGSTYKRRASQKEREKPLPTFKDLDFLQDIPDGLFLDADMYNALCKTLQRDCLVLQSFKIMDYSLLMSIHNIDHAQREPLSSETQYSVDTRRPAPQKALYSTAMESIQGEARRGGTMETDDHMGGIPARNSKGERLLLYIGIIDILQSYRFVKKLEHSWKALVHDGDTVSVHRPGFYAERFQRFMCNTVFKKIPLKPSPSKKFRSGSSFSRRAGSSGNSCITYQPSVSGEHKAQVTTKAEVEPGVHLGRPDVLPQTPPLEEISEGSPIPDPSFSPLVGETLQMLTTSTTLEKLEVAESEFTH
Experiment [17] concerns the target T3, Muscarinic acetylcholine receptor M1 (Homo sapiens) (UniProt P11229).
T3 sequence (whole entry): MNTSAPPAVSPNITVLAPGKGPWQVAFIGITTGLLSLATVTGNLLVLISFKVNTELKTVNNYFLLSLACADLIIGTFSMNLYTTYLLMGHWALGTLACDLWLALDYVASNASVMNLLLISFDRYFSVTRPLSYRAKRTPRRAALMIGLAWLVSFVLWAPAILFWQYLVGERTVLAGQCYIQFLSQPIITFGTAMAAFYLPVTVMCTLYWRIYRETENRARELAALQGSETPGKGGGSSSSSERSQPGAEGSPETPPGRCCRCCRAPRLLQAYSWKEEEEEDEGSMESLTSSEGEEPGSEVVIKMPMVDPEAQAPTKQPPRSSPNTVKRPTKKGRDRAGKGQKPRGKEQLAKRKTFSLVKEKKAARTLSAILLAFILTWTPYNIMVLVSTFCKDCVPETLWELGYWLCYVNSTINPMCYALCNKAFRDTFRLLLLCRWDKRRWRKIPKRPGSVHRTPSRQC
As to conditions: Compound concentration 10.0 uM.

The target of experiment [18] is T4, 5-hydroxytryptamine receptor 1A (Homo sapiens) (UniProt P08908).
T4 sequence (whole entry): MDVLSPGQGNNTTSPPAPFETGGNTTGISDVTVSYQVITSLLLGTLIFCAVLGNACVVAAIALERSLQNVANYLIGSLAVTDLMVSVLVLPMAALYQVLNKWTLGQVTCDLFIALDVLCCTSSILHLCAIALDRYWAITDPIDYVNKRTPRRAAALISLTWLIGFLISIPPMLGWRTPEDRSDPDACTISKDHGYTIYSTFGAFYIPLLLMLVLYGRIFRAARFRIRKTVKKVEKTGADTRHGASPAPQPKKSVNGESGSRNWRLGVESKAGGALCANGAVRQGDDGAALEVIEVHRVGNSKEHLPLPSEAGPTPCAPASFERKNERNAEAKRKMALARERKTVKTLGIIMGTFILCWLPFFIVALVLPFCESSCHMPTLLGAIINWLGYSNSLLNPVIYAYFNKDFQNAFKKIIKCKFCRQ
As to conditions: Compound concentration 10.0 uM.

Experiment [19] has as its target Beta-3 adrenergic receptor (Homo sapiens) (UniProt P13945). Conditions: Compound concentration 10.0 uM.
The target of experiment [20] is 5-hydroxytryptamine receptor 7 (Homo sapiens) (UniProt P34969). Conditions: Compound concentration 10.0 uM.

The structures appear in SMILES notation.

Chain of Ephrin type-B receptor 3 (Homo sapiens) (P54753 whole entry): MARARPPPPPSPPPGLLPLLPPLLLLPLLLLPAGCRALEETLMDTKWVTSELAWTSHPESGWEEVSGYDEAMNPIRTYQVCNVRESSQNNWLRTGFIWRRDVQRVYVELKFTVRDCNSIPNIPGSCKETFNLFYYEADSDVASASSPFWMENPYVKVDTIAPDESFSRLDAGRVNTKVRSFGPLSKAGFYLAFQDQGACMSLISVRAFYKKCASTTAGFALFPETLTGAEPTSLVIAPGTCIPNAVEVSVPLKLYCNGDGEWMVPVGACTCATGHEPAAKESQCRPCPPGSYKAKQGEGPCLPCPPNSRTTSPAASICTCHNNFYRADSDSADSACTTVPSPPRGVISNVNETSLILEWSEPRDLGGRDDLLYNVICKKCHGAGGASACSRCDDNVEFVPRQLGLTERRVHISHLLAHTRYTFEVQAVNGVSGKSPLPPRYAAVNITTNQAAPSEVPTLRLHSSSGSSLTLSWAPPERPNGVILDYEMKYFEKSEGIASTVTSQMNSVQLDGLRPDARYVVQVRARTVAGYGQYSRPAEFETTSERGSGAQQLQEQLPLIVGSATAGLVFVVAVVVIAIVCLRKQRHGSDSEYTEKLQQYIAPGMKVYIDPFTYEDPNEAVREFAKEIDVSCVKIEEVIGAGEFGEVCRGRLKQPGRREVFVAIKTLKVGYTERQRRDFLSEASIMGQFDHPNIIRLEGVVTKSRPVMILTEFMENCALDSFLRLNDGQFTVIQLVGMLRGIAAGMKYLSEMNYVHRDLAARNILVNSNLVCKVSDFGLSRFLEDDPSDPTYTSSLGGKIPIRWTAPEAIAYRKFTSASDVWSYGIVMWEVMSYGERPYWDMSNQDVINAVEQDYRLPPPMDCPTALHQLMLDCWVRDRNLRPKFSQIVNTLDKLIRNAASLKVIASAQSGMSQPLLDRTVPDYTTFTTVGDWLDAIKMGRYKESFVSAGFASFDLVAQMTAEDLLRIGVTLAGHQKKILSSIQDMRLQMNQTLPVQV
Chain of Hormonally up-regulated neu tumor-associated kinase (Homo sapiens) (P57058 whole entry): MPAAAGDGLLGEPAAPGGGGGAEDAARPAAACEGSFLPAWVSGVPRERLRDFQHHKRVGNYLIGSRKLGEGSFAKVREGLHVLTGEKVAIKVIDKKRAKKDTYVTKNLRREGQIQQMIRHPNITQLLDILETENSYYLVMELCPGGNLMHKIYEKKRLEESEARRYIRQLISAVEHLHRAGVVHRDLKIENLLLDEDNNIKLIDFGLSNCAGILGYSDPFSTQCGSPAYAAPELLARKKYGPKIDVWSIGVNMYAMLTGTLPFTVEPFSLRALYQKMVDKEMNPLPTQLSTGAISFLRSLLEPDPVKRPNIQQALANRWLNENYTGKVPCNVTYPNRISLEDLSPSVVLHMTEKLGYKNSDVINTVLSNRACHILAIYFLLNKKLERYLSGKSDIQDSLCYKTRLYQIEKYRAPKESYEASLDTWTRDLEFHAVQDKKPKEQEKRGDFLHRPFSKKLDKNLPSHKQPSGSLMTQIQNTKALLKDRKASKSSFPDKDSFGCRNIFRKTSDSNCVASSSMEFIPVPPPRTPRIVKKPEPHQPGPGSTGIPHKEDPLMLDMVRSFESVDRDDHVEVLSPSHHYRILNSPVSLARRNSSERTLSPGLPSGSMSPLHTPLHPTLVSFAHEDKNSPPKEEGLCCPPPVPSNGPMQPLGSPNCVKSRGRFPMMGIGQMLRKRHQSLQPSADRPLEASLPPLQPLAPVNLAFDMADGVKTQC
Chain of Calcium/calmodulin-dependent protein kinase type 1G (Homo sapiens) (Q96NX5 whole entry): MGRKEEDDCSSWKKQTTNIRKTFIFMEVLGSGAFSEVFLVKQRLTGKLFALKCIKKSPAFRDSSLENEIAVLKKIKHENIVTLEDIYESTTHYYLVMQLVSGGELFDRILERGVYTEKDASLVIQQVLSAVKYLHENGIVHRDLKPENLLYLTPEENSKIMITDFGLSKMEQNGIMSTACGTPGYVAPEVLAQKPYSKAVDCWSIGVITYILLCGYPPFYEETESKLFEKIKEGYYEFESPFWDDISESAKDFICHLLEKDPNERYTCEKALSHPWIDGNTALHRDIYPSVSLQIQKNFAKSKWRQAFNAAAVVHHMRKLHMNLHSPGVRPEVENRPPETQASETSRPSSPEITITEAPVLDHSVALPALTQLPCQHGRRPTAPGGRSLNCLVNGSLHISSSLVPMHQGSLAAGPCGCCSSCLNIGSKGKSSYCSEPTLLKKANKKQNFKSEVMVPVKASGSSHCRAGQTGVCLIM
Chain of Mitogen-activated protein kinase 12 (Homo sapiens) (P53778 whole entry): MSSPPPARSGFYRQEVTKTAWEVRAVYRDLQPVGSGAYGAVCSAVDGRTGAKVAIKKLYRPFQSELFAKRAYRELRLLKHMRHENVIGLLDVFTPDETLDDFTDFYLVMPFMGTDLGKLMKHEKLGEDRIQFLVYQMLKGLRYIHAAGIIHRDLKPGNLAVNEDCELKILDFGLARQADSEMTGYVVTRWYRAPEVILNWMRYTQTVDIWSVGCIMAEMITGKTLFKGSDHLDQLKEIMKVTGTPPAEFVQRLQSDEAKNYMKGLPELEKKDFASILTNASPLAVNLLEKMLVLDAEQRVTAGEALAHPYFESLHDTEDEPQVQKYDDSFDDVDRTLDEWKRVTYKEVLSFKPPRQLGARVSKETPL

With `O=C(NS(=O)(=O)c1ccc(NCC2CCOCC2)c([N+](=O)[O-])c1)c1ccc(N2CCN(Cc3ccc(C(F)(F)F)cc3-c3ccc(Cl)cc3)CC2)cc1Oc1cnc2[nH]ccc2c1` [A-1210227], the residual activity is 50% in experiment [1]; 100% in [2]; 92% in experiment [3]; 100% in experiment [4]; 100% in experiment [5]; 91% in experiment [6]. Moreover, the residual activity in experiment [8] was 100%; in experiment [10], 77%; in experiment [11] it was 100%; in experiment [12] it was 100%; in experiment [13] it was 100%; in experiment [14], 100%. The residual activity in [16] is 93%. Further, the inhibition (usually the change of the read-out against control, counted positive when it falls) in experiment [7] is 9.67%; in [15], 10%; in experiment [17] it was -6.07%. Also, the Ki (commonly the equilibrium dissociation constant of an inhibitor or competing ligand from its target) in experiment [9] came to 10 µM.
Regarding `CO[C@H]1CC[C@H](CNc2ccc(S(=O)(=O)NC(=O)c3ccc(N4CCN(CC5=C(c6ccc(Cl)cc6)CC(C)(C)CC5)CC4)cc3Oc3cnc4[nH]ccc4c3)cc2[N+](=O)[O-])CC1` [A-1211212], the inhibition in experiment [18] is -7.27%; in experiment [19], -6.65%; in experiment [7], 12.5%; in experiment [20], -7.24%; in experiment [15] it was 12.5%; in experiment [17] it was 4.59%. Moreover, the residual activity in experiment [1] is 47%; in experiment [2] it was 94%; in [3] it was 73%; in experiment [4] it was 100%; in experiment [5], 67%; in [6] it was 79%. The residual activity is 78% in [8]; 72% in experiment [10]; 100% in [11]; 100% in experiment [12]; 96% in [13]; 96% in experiment [14]. The residual activity in [16] is 86%.
